These results are taken from article PMC6349905 (Cell Death Discovery, 2019).

Where two headings read alike, the source gives them in different places.

Data set [1] concerns the target T1, sigma-2 receptors (Rattus norvegicus, UniProt Q5U3Y7).
T1 sequence (Q5U3Y7 1-176): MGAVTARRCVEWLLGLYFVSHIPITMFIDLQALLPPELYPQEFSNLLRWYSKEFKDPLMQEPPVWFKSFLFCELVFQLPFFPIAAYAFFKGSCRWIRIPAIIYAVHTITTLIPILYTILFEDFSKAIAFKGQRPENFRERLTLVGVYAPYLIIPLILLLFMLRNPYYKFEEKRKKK
Briefly: Sigma-2 receptor competition binding assay with [3H]DTG. Also on record: 60 μg Sprague Dawley rat liver membrane homogenates; from tissue; host or cells: Sprague Dawley rat liver membrane homogenates.
Description: (§2) The sigma-1 and sigma-2 receptor binding affinities of sigma-2 ligands were determined using a competition assay as previously described[32],[33]. […] The concentrations of each non-radioactive compound ranged from 0.1 to 10 μM. The non-specific binding was determined in the presence of 10 μM haloperidol. […] The concentrations of each non-radioactive compound ranged from 0.1 nM to 10 μM. 500 nM of (+)-pentazocine was added to mask the sigma-1 receptor binding site. The non-specific binding was determined in the presence 10 μM DTG.
(§3) After incubation, the bound ligands were filtrated with a M-24 Brandel filtration system (Brandel, Gaithersburg, MD, USA), collected on glass fiber papers (Whatman grade 934-AH, GE Healthcare Bio-Sciences, Pittsburgh, PA), and counted with a MicroBeta2 Microplate counter 2450 (Perkin Elmer, Boston, MA). […] Ki values were reported as mean ± SD from at least three independent experiments.

In data set [2] the test system is DTG residual binding site (RBS). Briefly: DTG RBS competition binding assay, TMEM97 KO cell membranes. Also on record: species or system human. The settings on record: TMEM97 KO HeLa cell membranes, 45 nM [3H]DTG, 500 nM (+)-pentazocine mask.
Description: (§4) The binding affinities of sigma-2 ligands for the DTG RBS were determined using a competition assay as previously described[13],[33] with minor modification. For cell harvesting, TMEM97 KO or TMEM97/PGRMC1 double KO HeLa cells were scraped from culture dishes in ice-cold Phosphate-Buffered Saline (PBS) and collected by centrifugation. The cell pellets were immediately stored at −80 °C until use. For cell membrane homogenate preparation, the cell pellets were re-suspended in 10 mL ice-cold PBS, and homogenized using Wheaton overhead stirrer (120 Vac Overhead Stirrer, Millville, NJ, USA) at the speed of 2 for 30 sec. The cell homogenates were then centrifuged for 20 min at 31,000×g at 4 °C. After centrifugation, the supernatant was discarded and the pellets were re-suspended in 1 mL ice-cold PBS and stored at −80 °C freezer until use. […] 500 nM (+)-pentazocine was added to mask the sigma-1 receptor binding site. The non-specific binding was determined in the presence of 60 μM cold DTG.
as §3
Data set [3] shares this test system. Briefly: DTG RBS competition binding assay, double KO cell membranes. Conditions: double KO HeLa cell membranes, 45 nM [3H]DTG, 500 nM (+)-pentazocine mask. Also on record: species or system human.
Description: as §4, §3
A further data set deals with TMEM97 KO HeLa cells. Briefly: Cell viability assay (CellTiter Glo), TMEM97 KO cells. Format: cell-based, human. The settings on record: 24 h, mean ± SD. The method, then: (§1) HeLa human cervical cancer cells were from American Type Culture Collection (ATCC, Manassas, VA). Control, TMEM97 KO, PGRMC1 KO and TMEM97/PGRMC1 double KO HeLa cell lines were grown in MEM containing 10% fetal bovine serum, 2 mM L-glutamine, 1% non-essential amino acids, 100 units/ml penicillin, and 100 μg/ml streptomycin. All the cell lines were maintained at 37 °C in a humidified incubator with a 5% CO2/95% air atmosphere.
A general note: In ATP-based viability assays light output follows the ATP content of the culture.

The subject of the next data set is control HeLa cells. Briefly: Cell viability assay (CellTiter Glo), control cells. Format: cell-based, human. The settings on record: 24 h, mean ± SD. How it is done:
as §1

Another data set concerns PGRMC1 KO HeLa cells. Briefly: Cell viability assay (CellTiter Glo), PGRMC1 KO cells. Format: cell-based, human. Conditions: 24 h, mean ± SD. The method, then: as §1
Data set [4] deals with TMEM97/PGRMC1 double KO HeLa cells. Briefly: Cell viability assay (CellTiter Glo), double KO cells. It is filed as cell-based, human. Conditions: 24 h, mean ± SD. How it is done: as §1
In data set [5] the test system is control, TMEM97 KO, PGRMC1 KO and double KO HeLa cells. Briefly: Internalization of SW120 (confocal imaging). Conditions: 100 nM, room temperature. It is filed as cell-based, human. The method, then:
HeLa cells were plated on 35-mm-diameter glass-bottom dishes at 2 × 10^5 cells per dish and incubated for 24 h. Prior to imaging, media was removed and fresh media containing 100 nM SW120 was added to the dishes. SW120 uptake in the live cells at room temperature was imaged using an inverted confocal microscope (Leica STED 3× super-resolution microscope). Images were acquired at 25 s intervals using a ×10 objective lens (using an excitation wavelength of 488 nm, and a 505 to 540 nm bandpass filter). Five optical slices at 2-μm intervals were scanned using the Z-stack function of the Leica imaging software. The brightest optical slice out of the five Z-stack optical slices was chosen for fluorescent intensity analysis. Twenty cells were analyzed in each dish using Fiji, an open-source platform based on ImageJ[35]. The fluorescent intensity was calculated as an average of 60 cells from three independent experiments (mean ± SEM).

In the next data set the target is T2, sigma-1 receptors (Cavia porcellus, UniProt Q60492).
T2 construct: 100 μg guinea pig brain membrane homogenates; from tissue; host or cells: guinea pig brain membrane homogenates
Briefly: Sigma-1 receptor competition binding assay with [3H](+)-pentazocine. Set-up: species or system guinea pig.

Data set [6] has as its system control, TMEM97 KO, PGRMC1 KO and double KO HeLa cells. Briefly: Cell viability assay across control and knockout HeLa cell lines (results in words). Conditions: for cytotoxicity in control and knockout cells: TMEM97 KO, PGRMC1 KO and double KO HeLa cells; for block of sigma-2 ligand-induced cytotoxicity: 30 µM, 1 h pre-incubation, then with sigma-2 agonists 24 h, all four cell lines.
Description: In order to study whether sigma-2 ligand-induced cytotoxicity is mediated by sigma-1 receptors, we used a sigma-1 agonist, (+)-pentazocine, or sigma-1 antagonist, NE-100, to block the sigma-1 binding site and then examined sigma-2 ligand-induced cytotoxicity. […] We pre-incubated cells with vehicle (cell culture media), 30 µM (+)-pentazocine, or 30 µM NE-100 for 1 h, then treated cells with sigma-2 agonists in the absence or presence of (+)-pentazocine or NE-100 for 24 h.
The cytotoxicity of compounds was determined using the CellTiter Glo® chemiluminescent assay (Promega, Madison, WI) that measures ATP. Cells were plated in black wall clear bottom 96-well plates at 5000 cells per well 24 h before treatment. Each compound was dissolved in DMSO and serially diluted in culture medium to acquire the desired concentrations. The final concentration of DMSO in the cell culture medium was no more than 1.0%. After 24 h treatment with the various compounds, 25 μl of the CellTiter Glo® Solution Reagent was added to each well. Then plates were immediately read on a Perkin Elmer Enspire® Multimode Plate Reader. Luminescence detected for each well was normalized to the untreated control and data was calculated as percent viability. The EC50, defined as the concentration of the sigma ligand required to inhibit cell proliferation by 50% relative to untreated cells, was determined from the dose–response curves generated using GraphPad Prism version 6 (GraphPad Software, Inc. La Jolla, CA).

For data set [7], the system named is caspase-3 activation in control and knockout HeLa cells. Briefly: Caspase-Glo 3/7 assay. Format: cell-based, human. The settings on record: 24 h, TMEM97 KO and PGRMC1 KO cell lines. How it is done: HeLa cells were plated in white opaque 96-well plate at a cell density of 5000 cells per well for 24 h. […] Caspase-3/7 activity was measured by using the Caspase-Glo 3/7 Assay (Promega).

Data set [8] has as its target T1, sigma-2 receptors. The settings on record: rat liver membranes, 500 nM (+)-pentazocine mask.
Description: binding, the nonspecific binding was determined inthe presence of
was added to mask the sigma-1 receptor binding site and the
nonspecific binding was determined in the presence 10 μM DTG.
The Kd and Bmax values were determined by a nonlinear regression
analysis using GraphPad Prism software.
The Kd and Bmax values were
reported as mean ± SD in at least three independent experiments
Data set [9] has as its target DTG residual binding site (RBS). Set-up: method as in PMID 30443021. The settings on record: double KO HeLa cell membranes; read-out: Kd for the [3H]DTG RBS, double KO cell membranes; cited from earlier work.
For data set [10] the target is unchanged. Set-up: method as in PMID 30443021. Conditions: TMEM97 KO HeLa cell membranes; read-out: Kd for the [3H]DTG RBS, TMEM97 KO cell membranes; cited from earlier work.
Setting [11] is: rat liver membranes, 5 nM [3H]DTG, 500 nM (+)-pentazocine mask, mean ± SD, read-out: Ki for sigma-2 receptors.
The mark [12] stands for this setting: guinea pig brain membranes, 5 nM [3H](+)-pentazocine, mean ± SD, read-out: Ki for sigma-1 receptors.

T2 sequence (Q60492 whole entry): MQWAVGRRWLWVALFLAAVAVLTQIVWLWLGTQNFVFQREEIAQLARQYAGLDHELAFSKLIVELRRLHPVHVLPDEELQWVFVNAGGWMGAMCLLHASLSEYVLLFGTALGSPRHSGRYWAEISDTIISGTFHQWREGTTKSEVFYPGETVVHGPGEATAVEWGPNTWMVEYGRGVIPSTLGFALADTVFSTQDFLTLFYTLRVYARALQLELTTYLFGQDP
Description for sigma-1 receptors: as §2, §3

In the case of `COc1cccc2c1CCCC2CCCN1CCN(C2CCCCC2)CC1` (stereo not drawn) [PB28, 1-Cyclohexyl-4-[3-(5-methoxy-1,2,3,4-tetrahydronaphthalen-1-yl)propyl]piperazine], the Ki – broadly, a dissociation constant, usually derived from enzyme kinetics or from competition with a known ligand – on sigma-2 receptors [1] (setting [11]) was 1.1 ± 0.3 nM; in [2], 8.7 nM; in data set [3], 5.2 nM. Besides, the EC50 (as a rule, the concentration at which the effect is half-maximal) in the data set with TMEM97 KO HeLa cells (Homo sapiens) came out at 59.8 ± 10.7 µM; in the data set on control HeLa cells (Homo sapiens), 58.2 ± 5.9 µM; with PGRMC1 KO HeLa cells (Homo sapiens) it was 59.4 ± 8 µM; in data set [4] (Homo sapiens), 57.4 ± 6.9 µM.
With `COc1ccc(C)cc1NC(=O)OC1CC2CCCC(C1)N2CCCCCCCCCCNc1ccc([N+](=O)[O-])c2nonc12` (stereo not drawn) [SW120], the Ki was found to be 1 ± 0.3 nM on sigma-2 receptors [1] and 1940 ± 262 nM on sigma-1 receptors (setting [12]). In addition, the “uptake signals at 60, 90 and 120 min, all cell lines” value in data set [5] was “essentially the same for all the cell lines”. The “internalization rate in knockout cells compared to control cells” value in data set [5] (25-sec intervals for 18 min, TMEM97 KO, PGRMC1 KO and double KO cells) is listed as “reduced internalization rates”.
With `COc1cc2c(cc1OC)CN(CCCCNC(=O)c1cc(C)ccc1OCCF)CC2` [ISO-1], the Ki on sigma-2 receptors [1] (setting [11]) was 2 ± 0.6 nM; on sigma-1 receptors (setting [12]), 23.9 ± 1.9 nM. In addition, the EC50 (in the data set with TMEM97 KO HeLa cells (Homo sapiens); in the data set on control HeLa cells (Homo sapiens); in the data set with PGRMC1 KO HeLa cells (Homo sapiens); in data set [4] (Homo sapiens)) was more than 200 µM throughout. For the same compound, the “cytotoxicity in control and knockout cells” value in [6] was “did not exhibit”.
In the case of `COc1ccc(C)cc1NC(=O)OC1CC2CCCC(C1)N2CCCCCCCCCCN` (stereo not drawn) [SW43], the Ki on sigma-2 receptors [1] came out at 12.9 ± 2.3 nM; in data set [2] it was 33500 nM; in data set [3] it was 8620 nM; at sigma-1 receptors (setting [12]), 278 ± 65 nM. Besides, the EC50 was determined as 30.4 ± 3.4 µM in the data set on TMEM97 KO HeLa cells (Homo sapiens), 33.7 ± 8.6 µM in the data set on control HeLa cells (Homo sapiens), 33.2 ± 1.6 µM in the data set with PGRMC1 KO HeLa cells (Homo sapiens) and 32.8 ± 3.8 µM in [4] (Homo sapiens). Besides, the “EC50 of caspase-3/7 activation, comparison of cell lines” value in [7] is “identical”.
As for `CC(C)=CCN1CC[C@]2(C)c3cc(O)ccc3C[C@H]1[C@H]2C` [(+)-pentazocine], the EC50 (in the data set on TMEM97 KO HeLa cells; in the data set with control HeLa cells; with PGRMC1 KO HeLa cells; in data set [4]) was more than 200 µM throughout. Also, the “block of sigma-2 ligand-induced cytotoxicity” value in data set [6] is on record as “neither (+)-pentazocine nor NE-100 blocked sigma-2 ligand-induced cytotoxicity”. The “cytotoxicity in control and knockout cells” value in data set [6] is on record as “did not exhibit cytotoxicity”.
As for `COc1cc2c(cc1OC)CN(CCCCNC(=O)c1cc(C)ccc1OC)CC2` [RHM-1], the EC50 (with TMEM97 KO HeLa cells (Homo sapiens); with control HeLa cells (Homo sapiens); with PGRMC1 KO HeLa cells (Homo sapiens); in [4] (Homo sapiens)) was more than 200 µM in each case. For the same compound, on sigma-1 receptors (setting [12]), the Ki worked out at 1930 ± 625 nM. In addition, the “cytotoxicity in control and knockout cells” value in [6] is “did not exhibit”.
For `Cc1ccccc1NC(=N)Nc1ccccc1C` [[^3H]DTG, 1,3-Di-o-tolylguanidine], the “Bmax of [3H]DTG” value on sigma-2 receptors [8] is listed as 8958.0 ± 924.9 fmol/mg. Also, the Kd – broadly, the concentration at which binding is half-saturated – in data set [9] was 403 nM; in data set [10], 302 nM.
Take `CCCN(CCC)CCc1ccc(OC)c(OCCc2ccccc2)c1` [NE-100]: the EC50 (with TMEM97 KO HeLa cells; in the data set on control HeLa cells; in the data set on PGRMC1 KO HeLa cells; in [4]) was more than 200 µM throughout. Further, the “block of sigma-2 ligand-induced cytotoxicity” value in data set [6] is “neither (+)-pentazocine nor NE-100 blocked sigma-2 ligand-induced cytotoxicity”. Besides, the “cytotoxicity in control and knockout cells” value in data set [6] is recorded as “did not exhibit cytotoxicity”.
On to `COc1cc2c(cc1OC)CN(CCCCNC(=O)c1cc(I)cc(OC)c1OC)CC2` [RHM-4], for which the Ki on sigma-2 receptors [1] (setting [11]) was 2.4 ± 0.2 nM; in data set [2], more than 100000 nM; in data set [3] it was more than 100000 nM; at sigma-1 receptors (setting [12]) it was 3610 ± 533 nM. For the same compound, the EC50 (with TMEM97 KO HeLa cells (Homo sapiens); with control HeLa cells (Homo sapiens); with PGRMC1 KO HeLa cells (Homo sapiens); in data set [4] (Homo sapiens)) was more than 200 µM in each case.
As to `Fc1ccc(-n2cc(CCCCN3CCC4(CC3)OCc3ccccc34)c3ccccc32)cc1` [Siramesine, siramesine], the values for the Ki (in [2]; in data set [3]; on sigma-1 receptors) were 115 nM, 49.7 nM and 3 ± 0.5 nM, respectively. Further, the EC50 with TMEM97 KO HeLa cells (Homo sapiens) is 10.3 ± 1.49 µM; with control HeLa cells (Homo sapiens), 12.1 ± 1.7 µM; with PGRMC1 KO HeLa cells (Homo sapiens) it was 10.7 ± 0.7 µM; in [4] (Homo sapiens), 10 ± 1.3 µM.
